These results are taken from US12593767B2, “Protoplast isolation and regeneration of plants” (The Regents of the University of California, priority 2019, dated 2026).

Several values for one entry are separate records, joined by “and”; a condition that tells them apart may be missing. Identical values can stand only once. Like-named read-outs stand apart in the source and are kept apart here.

One experiment concerns TS protoplast. Nature of the experiment: Polyamines: callus colony formation from encapsulated protoplasts in 1103P feeder suspension. Conditions: for # colonies/alginate bead: 14 days after encapsulation, beads 1-5; for # colonies/alginate bead, Average / # colonies, Total: 14 days; for # colonies, Total: total of 5 beads. The experiment is classed as cell-based, grape. The procedure:
We re-suspended embedded protoplasts in conditioned osmotically adjusted grape cell suspension cultures in 125 ml shake flasks and incubated them at 100 rpm and 25 degrees centigrade. In this system, we utilize a grape nurse suspension culture that is of a different genotype than the genotype used to generate the protoplasts. For example, we used 1103P conditioned cell suspension cultures for embedded Thompson Seedless protoplasts.
Recently, we have replaced the use of the shake flasks with 60×15 mm petri plates. This format allows for easy observation of the protoplasts using an inverted microscope and aids sampling of beads to evaluate the fate of the embedded protoplasts. Beads are cultured in 3.5 ml of Lloyd and McCown minimal organics medium supplemented with 30 g/l sucrose, 10 mg/l Picloram and 2.0 mg/l TDZ, 0.4 M mannitol, 1,191 mg/l HEPES, 50 mM CaCl2, 5× antioxidant solution with 1.5 ml of conditioned 1103P cell suspension culture.
We are testing the ability of these polyamines to increase the plating efficiency of encapsulated protoplast as well as increase the rate of cell division. Initially we tested 1.0 mM putrescine in combination with 0.0 or 0.1 mM spermidine since we have previously found these levels to be beneficial in other plant species.

Experiment [1] deals with protoplast-derived somatic embryos. Nature of the experiment: Maintenance of embryo-containing beads on sorbitol-containing agar medium. Conditions: beads maintained on agar-solidified medium containing sorbitol (50 g/l). It is filed as cell-based, grape. The method, then:
Using forceps, we manually transferred individual beads to a 100×20 mm petri dish containing 40 ml of Lloyd and McCown minimal organics medium supplemented with 20 g/l sucrose, 1 g/l casein, 222 mg/l CaCl2, without hormones or activated charcoal. We repeated this transfer/washing process two more times to eliminate any of the feeder suspension cells. We then transferred beads onto agar-solidified 100×20 mm feeder plates containing 40 ml of Lloyd and McCown minimal organics medium supplemented with 20 g/l sucrose, 50 g/l sorbitol, 1 g/l casein, 1 mM MES, 0.5 mg/l BAP and 0.1 mg/l NAA onto which 1.0 ml of a […] grape suspension culture is plated. The grape suspension culture medium consisted of WPM medium supplemented with 20 g/l sucrose 10 mg/l picloram and 2.0 […] mannitol, 222 mg/l CaCl2, 1 g/l casein, 1,191 mg/l HEPES and 2 g/l activated charcoal, pH 5.7. We placed an 85 mm Whatman filter paper over the plated suspension and a 70 mm Whatman filter paper on top of the 85 mm filter. We placed beads on top of the 70 mm filter paper. We add 1 ml Lloyd and McCown minimal organics medium supplemented with 30 g/l sucrose, 1 g/l casein, 1 mM MES, 10 mg/l picloram and 2.0 mg/l TDZ to each plate to prevent desiccation. We incubated the cultures at 26 degrees centigrade in the dark. After approximately 3-4 weeks, mini-calli developed into somatic embryos within the beads (FIG. 15). […]

For another experiment, the system named is Merlot protoplasts. The following applies: for Ave colonies per bead / Number of colonies, Total / Number of colonies per bead: + 1.0 mM PUT, 0.1 mM SPD; for Number of colonies, Total: total of 5 beads; for Number of colonies per bead: beads 1-5. The procedure:
I have developed and tested an antioxidant solution consisting of 100 mg/l ascorbic acid, 150 mg/l citric acid, 30 mg/l reduced glutathione and 100 mg/l L-cysteine (PTF AQ). I tested the effect of this antioxidant addendum on protoplast viability and division on Thompson seedless and Merlot protoplast culture. Protoplast were isolated and encapsulated in 1.6% calcium alginate beads. Calcium alginate beads from the same protoplast preparation were randomly transferred to shake flasks containing conditioned 0.4 M Pic/TDZ 1103P feeder cell suspensions with or without the addition of 1× or 5× of the antioxidant solutions. After 14 days, the osmotic strength of the feeder suspension was reduced from 0.4 M to 0.2 M mannitol. At day 35, I randomly harvested five beads per treatment and counted the number of mini calli per bead.

[2] abbreviates: SPD 0.0 mM, CAD 0.1 mM, + 1.0 mM putrescine, 0.1 mM spermidine, Experiment 19136.
[3] abbreviates: SPD 0.0 mM, CAD 1.0 mM, + 1.0 mM putrescine, 0.1 mM spermidine, Experiment 19136.
[4] abbreviates: SPD 0.1 mM, CAD 0.0 mM, + 1.0 mM putrescine, 0.1 mM spermidine, Experiment 19136.
Where [5] appears, read: SPD 0.1 mM, SPM 0.0 mM, + 1 mM putrescine, Experiment 19129.
[6] abbreviates: SPD 1.0 mM, CAD 0.0 mM, + 1.0 mM putrescine, 0.1 mM spermidine, Experiment 19136.
The mark [7] stands for this setting: SPD 1.0 mM, SPM 0.0 mM, + 1 mM putrescine, Experiment 19129.
Where [8] appears, read: SPD 0.0 mM, SPM 0.1 mM, + 1 mM putrescine, Experiment 19129.
Where [9] appears, read: SPD 0.0 mM, SPM 1.0 mM, + 1 mM putrescine, Experiment 19129.

Consider `NCCCCCN` [cadaverine], for which the “# colonies/alginate bead” value was 100 colonies/alginate bead and 115 colonies/alginate bead and 92 colonies/alginate bead and 104 colonies/alginate bead and 95 colonies/alginate bead in the experiment with TS protoplast (SPD 0.0 mM, CAD 0.1 mM, + 1.0 mM putrescine, 0.1 mM spermidine, Experiment 19136, listed as CAD); 104 colonies/alginate bead and 82 colonies/alginate bead and 87 colonies/alginate bead and 92 colonies/alginate bead and 73 colonies/alginate bead with TS protoplast (SPD 0.0 mM, CAD 1.0 mM, + 1.0 mM putrescine, 0.1 mM spermidine, Experiment 19136, listed as CAD). For the same compound, the “# colonies/alginate bead, Average” value with TS protoplast (setting [2]) is given as 101.2 colonies/alginate bead; in the experiment with TS protoplast (setting [3]), 87.6 colonies/alginate bead. In addition, the “# colonies, Total” value in the experiment on TS protoplast (setting [2]) stood at 506; with TS protoplast (setting [3]) it was 438. Further, in the experiment with TS protoplast (cadaverine 0.1 or 1.0 mM, + 1.0 mM putrescine, 0.1 mM spermidine, 0.0-1.0 mM spermine), the “cell division or cells growth from grape protoplasts” value is listed as “does not seem to enhance cell division or cells growth”.

`NCCCCN` [putrescine]: the callus colony formation with TS protoplast (1.0 mM putrescine) is recorded as “stimulated callus colony formation”.

On to `OC[C@@H](O)[C@@H](O)[C@H](O)[C@@H](O)CO` [sorbitol], for which the “germination of embryos in beads” value in experiment [1] was “will not germinate further and become dormant”.

Consider `NCCCCNCCCN` [spermidine], for which the “callus colony formation, addition to 1.0 mM putrescine” value in the experiment with TS protoplast (0.1 mM spermidine) is on record as “did not enhance the response”. Further, the “# colonies/alginate bead” value is 68 colonies/alginate bead and 79 colonies/alginate bead and 64 colonies/alginate bead and 65 colonies/alginate bead and 86 colonies/alginate bead in the experiment on TS protoplast (SPD 0.1 mM, CAD 0.0 mM, + 1.0 mM putrescine, 0.1 mM spermidine, Experiment 19136, listed as SPD); 91 colonies/alginate bead and 93 colonies/alginate bead and 120 colonies/alginate bead and 110 colonies/alginate bead with TS protoplast (SPD 0.1 mM, SPM 0.0 mM, + 1 mM putrescine, Experiment 19129, listed as SPD); 133 colonies/alginate bead and 121 colonies/alginate bead and 115 colonies/alginate bead and 98 colonies/alginate bead in the experiment with TS protoplast (SPD 1.0 mM, CAD 0.0 mM, + 1.0 mM putrescine, 0.1 mM spermidine, Experiment 19136, listed as SPD); 81 colonies/alginate bead and 97 colonies/alginate bead and 79 colonies/alginate bead and 125 colonies/alginate bead and 89 colonies/alginate bead in the experiment with TS protoplast (SPD 1.0 mM, SPM 0.0 mM, + 1 mM putrescine, Experiment 19129, listed as SPD). For the same compound, the “# colonies/alginate bead, Average” value is on record as 72.4 colonies/alginate bead with TS protoplast (setting [4]), 101.4 colonies/alginate bead in the experiment on TS protoplast (setting [5]), 120 colonies/alginate bead in the experiment with TS protoplast (setting [6]) and 94.2 colonies/alginate bead in the experiment on TS protoplast (setting [7]). In addition, the “# colonies, Total” value in the experiment on TS protoplast (setting [4]) is reported as 362; with TS protoplast (setting [5]), 507; with TS protoplast (setting [6]), 600; with TS protoplast (setting [7]) it was 471.

Turning to `NCCCNCCCCNCCCN` [spermine], the enhancement in growth entry with TS protoplast (0.1 mM spermine, + 1.0 mM putrescine) is listed as “did not see any enhancement in growth”. In addition, the callus colony growth with TS protoplast (1.0 mM spermine, 21 days of culture, regardless of the level of CAD) is “significant enhancement in callus colony growth”. Also, the “number of protoplasts that divided and speed of protoplast derived callus formation” value with TS protoplast (1.0 mM spermine, + 1.0 mM putrescine, irrespective of the spermidine concentration) is “enhanced the number of protoplasts that divided and the speed of protoplast derived callus formation”. Also, the “# colonies/alginate bead” value with TS protoplast (SPD 0.0 mM, SPM 0.1 mM, + 1 mM putrescine, Experiment 19129, listed as SPM) was 96 colonies/alginate bead and 81 colonies/alginate bead and 79 colonies/alginate bead and 59 colonies/alginate bead and 84 colonies/alginate bead. The “# colonies/alginate bead, Average” value in the experiment with TS protoplast (setting [8]) came to 79.8 colonies/alginate bead; in the experiment with TS protoplast (setting [9]), 205.8 colonies/alginate bead. For the same compound, the results for the “# colonies, Total” value in the experiment on TS protoplast (setting [8]) and in the experiment on TS protoplast (setting [9]) were 399 and 1029, respectively. In addition, the “number and speed of mini-callus formation” value in the experiment on TS protoplast (Thompson seedless derived protoplasts) is “significantly enhanced the number and speed of mini-callus formation”; in the experiment with Merlot protoplasts (Merlot derived protoplasts), “significantly enhanced the number and speed of mini-callus formation”. Besides, the “Ave colonies per bead” value with Merlot protoplasts (SPM 0.1 mM) was found to be 0.2 colonies per bead; in the experiment with Merlot protoplasts (SPM 0.25 mM), 0 colonies per bead; with Merlot protoplasts (SPM 0.5 mM) it was 0.2 colonies per bead; with Merlot protoplasts (SPM 0.75 mM), 0 colonies per bead; with Merlot protoplasts (SPM 1.0 mM), 6.2 colonies per bead. Also, the “Number of colonies, Total” value turned out to be 1 with Merlot protoplasts (SPM 0.1 mM); 0 with Merlot protoplasts (SPM 0.25 mM); 1 in the experiment on Merlot protoplasts (SPM 0.5 mM); 0 in the experiment with Merlot protoplasts (SPM 0.75 mM); 31 with Merlot protoplasts (SPM 1.0 mM). For the same compound, the “Number of colonies per bead” value in the experiment on Merlot protoplasts (SPM 0.25 mM) and with Merlot protoplasts (SPM 0.75 mM) was 0 colonies per bead throughout.
